Assays:
[1] = target: T1, EGFR L858R (Homo sapiens, UniProt P00533, L858R); test: Biochemical EGFR inhibition assay (Caliper mobility shift), EGFR L858R; conditions: biochemical Caliper mobility shift assay, EGFR L858R enzyme; read-out: Enz EGFR L858R IC50
T1 construct: purchased SignalChem E10-122BG
How it was run: (§1)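 Apparent IC50 from Caliper separation of phospho-peptide from substrate. Conditions: 2.5 µM 5-FAM peptide, 1.0 mM ATP or ATP Km, pH 7.5 HEPES buffer, room temperature, 10–20% conversion, EDTA stop.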

[2] = target: T2, EGFR (d746-750) (Homo sapiens, UniProt P00533, DEL746-750); test: Biochemical EGFR inhibition assay (Caliper mobility shift), EGFR (d746-750); conditions: biochemical Caliper mobility shift assay, EGFR Exon 19-del enzyme; read-out: Enz EGFR Exon 19-del IC50
T2 construct: purchased SignalChem E10-122JG
T2 sequence (P00533 with tags, fused parts or gaps DEL746-750 limits assumed): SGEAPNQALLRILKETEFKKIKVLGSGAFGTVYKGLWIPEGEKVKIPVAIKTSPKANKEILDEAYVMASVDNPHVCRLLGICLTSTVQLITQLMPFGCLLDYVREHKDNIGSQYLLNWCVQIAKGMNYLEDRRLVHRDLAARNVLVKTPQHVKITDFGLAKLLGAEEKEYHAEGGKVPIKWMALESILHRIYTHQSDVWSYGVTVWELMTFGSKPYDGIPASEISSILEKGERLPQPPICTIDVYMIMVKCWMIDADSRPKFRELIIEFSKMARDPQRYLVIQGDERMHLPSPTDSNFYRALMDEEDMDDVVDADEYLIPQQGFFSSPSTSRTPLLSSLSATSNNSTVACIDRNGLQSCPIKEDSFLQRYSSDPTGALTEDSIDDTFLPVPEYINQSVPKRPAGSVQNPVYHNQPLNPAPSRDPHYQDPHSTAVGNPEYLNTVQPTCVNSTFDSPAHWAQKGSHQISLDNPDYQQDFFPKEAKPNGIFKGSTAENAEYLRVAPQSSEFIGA
How it was run: as §1

[3] = target: intracellular phosphorylation of EGFR (Tyr1068) in PC-9 cells (Homo sapiens, UniProt P00533, DEL746-750); test: PC-9 pEGFR AlphaLISA assay; format: cell-based; conditions: 4 hours incubation, read-out: Phos EGFR PC9 IC50
Sequence of intracellular phosphorylation of EGFR (Tyr1068) in PC-9 cells (P00533 with tags, fused parts or gaps DEL746-750): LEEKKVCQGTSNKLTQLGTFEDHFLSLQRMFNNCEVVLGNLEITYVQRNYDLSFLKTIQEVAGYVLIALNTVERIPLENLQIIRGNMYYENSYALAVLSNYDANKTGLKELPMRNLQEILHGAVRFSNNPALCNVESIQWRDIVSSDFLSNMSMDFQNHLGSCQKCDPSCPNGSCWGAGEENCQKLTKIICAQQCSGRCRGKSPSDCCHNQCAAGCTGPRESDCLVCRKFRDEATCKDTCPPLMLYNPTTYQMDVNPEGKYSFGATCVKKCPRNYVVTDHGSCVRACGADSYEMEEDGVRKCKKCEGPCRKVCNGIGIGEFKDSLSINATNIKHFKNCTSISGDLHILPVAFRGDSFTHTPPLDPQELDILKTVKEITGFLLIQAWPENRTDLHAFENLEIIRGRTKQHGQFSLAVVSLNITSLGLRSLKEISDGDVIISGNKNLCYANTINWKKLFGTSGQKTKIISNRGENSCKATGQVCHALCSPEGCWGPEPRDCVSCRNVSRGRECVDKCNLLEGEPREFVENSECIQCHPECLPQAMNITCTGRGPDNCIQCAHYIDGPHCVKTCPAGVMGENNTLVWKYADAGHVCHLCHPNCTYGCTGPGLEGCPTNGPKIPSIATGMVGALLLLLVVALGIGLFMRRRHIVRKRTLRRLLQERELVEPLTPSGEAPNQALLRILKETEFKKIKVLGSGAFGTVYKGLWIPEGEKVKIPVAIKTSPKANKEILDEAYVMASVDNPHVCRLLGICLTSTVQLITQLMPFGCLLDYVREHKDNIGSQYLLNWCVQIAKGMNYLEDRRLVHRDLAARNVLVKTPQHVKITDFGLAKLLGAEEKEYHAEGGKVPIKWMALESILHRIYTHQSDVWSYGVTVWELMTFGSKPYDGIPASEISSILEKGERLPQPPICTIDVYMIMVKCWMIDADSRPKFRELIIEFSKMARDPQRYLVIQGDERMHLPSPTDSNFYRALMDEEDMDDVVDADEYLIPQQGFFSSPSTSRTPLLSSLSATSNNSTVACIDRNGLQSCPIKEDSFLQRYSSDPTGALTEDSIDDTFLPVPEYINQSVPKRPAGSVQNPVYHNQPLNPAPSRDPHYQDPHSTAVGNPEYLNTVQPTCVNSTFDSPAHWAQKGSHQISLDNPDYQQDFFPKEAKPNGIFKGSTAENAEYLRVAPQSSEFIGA
How it was run: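 PC-9 cells (EGFR del746-750) in phenol-free DMEM/10% FBS, adhered overnight, then exposed to 10-point 4-fold compound dilutions for 4 h at 37 °C. Lysates assayed for pEGFR Tyr1068 by AlphaLISA SureFire Ultra; IC50 from percent pEGFR inhibition vs log concentration.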

T1 sequence (P00533 25-1210 L858R): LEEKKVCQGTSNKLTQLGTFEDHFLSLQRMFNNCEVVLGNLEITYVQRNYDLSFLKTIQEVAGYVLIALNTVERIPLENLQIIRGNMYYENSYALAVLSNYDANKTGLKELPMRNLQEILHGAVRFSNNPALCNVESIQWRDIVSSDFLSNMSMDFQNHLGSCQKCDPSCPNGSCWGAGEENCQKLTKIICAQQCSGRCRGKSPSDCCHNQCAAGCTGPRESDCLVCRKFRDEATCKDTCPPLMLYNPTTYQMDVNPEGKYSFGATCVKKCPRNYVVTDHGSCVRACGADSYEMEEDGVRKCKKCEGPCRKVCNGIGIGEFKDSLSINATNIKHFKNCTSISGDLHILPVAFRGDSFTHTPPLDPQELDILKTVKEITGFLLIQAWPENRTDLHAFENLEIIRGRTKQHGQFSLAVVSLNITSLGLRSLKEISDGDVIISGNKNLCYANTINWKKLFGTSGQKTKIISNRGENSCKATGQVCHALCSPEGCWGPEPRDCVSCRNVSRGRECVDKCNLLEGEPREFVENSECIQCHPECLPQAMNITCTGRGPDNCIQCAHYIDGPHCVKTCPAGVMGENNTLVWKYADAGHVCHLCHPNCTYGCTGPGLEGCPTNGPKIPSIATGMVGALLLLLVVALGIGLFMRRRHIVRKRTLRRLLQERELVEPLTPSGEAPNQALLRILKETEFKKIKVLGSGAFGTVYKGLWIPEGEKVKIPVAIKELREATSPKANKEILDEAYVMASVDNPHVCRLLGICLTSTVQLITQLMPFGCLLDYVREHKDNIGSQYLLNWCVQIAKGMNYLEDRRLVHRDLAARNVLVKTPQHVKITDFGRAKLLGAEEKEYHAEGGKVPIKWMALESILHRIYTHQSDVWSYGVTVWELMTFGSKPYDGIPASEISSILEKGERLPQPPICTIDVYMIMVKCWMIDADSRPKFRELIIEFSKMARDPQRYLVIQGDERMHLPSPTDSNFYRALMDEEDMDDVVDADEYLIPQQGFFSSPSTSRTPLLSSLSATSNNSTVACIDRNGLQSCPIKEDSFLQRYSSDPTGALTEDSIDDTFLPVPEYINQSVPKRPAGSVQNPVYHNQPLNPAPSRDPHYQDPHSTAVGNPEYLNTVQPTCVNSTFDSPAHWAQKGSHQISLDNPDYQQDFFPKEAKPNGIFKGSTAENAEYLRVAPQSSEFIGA

Work on `COc1cc2c(Nc3ccc4ncsc4c3)ncnc2cc1-c1cnn(C)c1` [Example 263, N-(6-methoxy-7-(1-methyl-1H-pyrazol-4-yl)quinazolin-4-yl)benzo[d]thiazol-6-amine] yielded an IC50 [1] of no more than 10 nM, an IC50 [2] of no more than 10 nM and an IC50 [3] of no more than 10 nM.
For `Cn1cc(-c2cc(OCC3COC3)c3c(Nc4ccc5ncsc5c4)ncnc3c2)cn1` [Example 28, N-(7-(1-methyl-1H-pyrazol-4-yl)-5-(oxetan-3-ylmethoxy)quinazolin-4-yl)benzo[d]thiazol-6-amine], the IC50 [1] was no more than 10 nM, the IC50 [2] was no more than 10 nM and the IC50 [3] was 10.1 to 50 nM.
For `CO[C@@H]1CCNC[C@H]1Oc1cc(-c2cnn(C)c2)cc2ncnc(Nc3ccc4ncsc4c3)c12` (single isomer, unassigned) [Example A38], the IC50 [1] was 10.1 to 50 nM, the IC50 [2] was no more than 10 nM and the IC50 [3] was 10.1 to 50 nM.
In the case of `C[C@@H](Oc1cc(-c2cnn(C)c2)cc2ncnc(Nc3ccc4ncsc4c3F)c12)[C@@H]1CCCO1` [Example 112, 7-fluoro-N-(7-(1-methyl-1H-pyrazol-4-yl)-5-((R)-1-((S)-tetrahydrofuran-2-yl)ethoxy)quinazolin-4-yl)benzo[d]thiazol-6-amine], the IC50 [1] is reported as no more than 10 nM, the IC50 [2] is reported as no more than 10 nM and the IC50 [3] is reported as no more than 10 nM.
Compound `CC(C)n1cc(-c2cc(OC3CCOCC3)c3c(Nc4ccc5ncsc5c4)ncnc3c2)cn1` [Example 191, N-(7-(1-isopropyl-1H-pyrazol-4-yl)-5-((tetrahydro-2H-pyran-4-yl)oxy)quinazolin-4-yl)benzo[d]thiazol-6-amine] has an IC50 [1] of no more than 10 nM, an IC50 [2] of no more than 10 nM and an IC50 [3] of 10.1 to 50 nM.
`C[C@@H](Oc1cc(N2CCN(C)[C@@H](C)C2)cc2ncnc(Nc3ccc4ncsc4c3F)c12)C1COC1` (single isomer, unassigned) [Example 99] gave an IC50 [1] of 10.1 to 50 nM, an IC50 [2] of no more than 10 nM and an IC50 [3] of 10.1 to 50 nM.
`COC[C@@H](C)Oc1cc(N2CCN(C)C[C@H]2C)cc2ncnc(Nc3ccc4ncsc4c3)c12` (single isomer, unassigned) [Example 212] gave an IC50 [1] of 10.1 to 50 nM, an IC50 [2] of 10.1 to 50 nM and an IC50 [3] greater than 50.1 nM.
With `COc1nn(C)cc1-c1cc(O[C@H]2CN(C)C[C@@H]2F)c2c(Nc3ccc4ncsc4c3)ncnc2c1` (single isomer, unassigned) [Example 377] the IC50 [1] was 10.1 to 50 nM, the IC50 [2] was 10.1 to 50 nM and the IC50 [3] was 10.1 to 50 nM.
With `COC[C@@H](C)Oc1cc(N2CCNCC2)cc2ncnc(Nc3ccc4ncsc4c3)c12` [Example 195, (R)-N-(5-((1-methoxypropan-2-yl)oxy)-7-(piperazin-1-yl)quinazolin-4-yl)benzo[d]thiazol-6-amine] the IC50 [1] was no more than 10 nM, the IC50 [2] was no more than 10 nM and the IC50 [3] was 10.1 to 50 nM.
`COc1nn(C)cc1-c1cc(O[C@@H]2CCN(C)C[C@@H]2F)c2c(Nc3ccc4ncsc4c3)ncnc2c1` [Example 362, N-(5-(((3S,4R)-3-fluoro-1-methylpiperidin-4-yl)oxy)-7-(3-methoxy-1-methyl-1H-pyrazol-4-yl)quinazolin-4-yl)benzo[d]thiazol-6-amine] gave an IC50 [1] of no more than 10 nM, an IC50 [2] of no more than 10 nM and an IC50 [3] of no more than 10 nM.
`Cn1cc(-c2cc(OC3CC3)c3c(Nc4ccc5ncsc5c4)ncnc3c2)cn1` [Example 259, N-(5-cyclopropoxy-7-(1-methyl-1H-pyrazol-4-yl)quinazolin-4-yl)benzo[d]thiazol-6-amine] showed an IC50 [1] of no more than 10 nM, an IC50 [2] of no more than 10 nM and an IC50 [3] of no more than 10 nM.
Work on `CN1CCC[C@H](Oc2cc(-c3cn(C)nc3OC(F)F)cc3ncnc(Nc4ccc5ncsc5c4)c23)C1` [Example 248, (S)-N-(7-(3-(difluoromethoxy)-1-methyl-1H-pyrazol-4-yl)-5-((1-methylpiperidin-3-yl)oxy)quinazolin-4-yl)benzo[d]thiazol-6-amine] yielded an IC50 [1] of 10.1 to 50 nM, an IC50 [2] of no more than 10 nM and an IC50 [3] of 10.1 to 50 nM.
With `C[C@H]1COCC[C@H]1Oc1cc(-c2cnn(C)c2)cc2ncnc(Nc3ccc4ncsc4c3)c12` (racemic) [Example 25, cis-racemic N-(7-(1-methyl-1H-pyrazol-4-yl)-5-(((3S,4R)-3-methyltetrahydro-2H-pyran-4-yl)oxy)quinazolin-4-yl)benzo[d]thiazol-6-amine] the IC50 [1] was no more than 10 nM, the IC50 [2] was no more than 10 nM and the IC50 [3] was 10.1 to 50 nM.
`C[C@@H](CN(C)C)Oc1cc(-c2cnn(C)c2)cc2ncnc(Nc3ccc4ncsc4c3)c12` (single isomer, unassigned) [Example 159, (S)—N-(5-((1-(dimethylamino)propan-2-yl)oxy)-7-(1-methyl-1H-pyrazol-4-yl)quinazolin-4-yl)benzo[d]thiazol-6-amine or (R)—N-(5-((1-(dimethylamino)propan-2-yl)oxy)-7-(1-methyl-1H-pyrazol-4-yl)quinazolin-4-yl)benzo[d]thiazol-6-amine] was tested, and the IC50 [1] was 10.1 to 50 nM, the IC50 [2] was no more than 10 nM and the IC50 [3] was 10.1 to 50 nM.
Compound `CN1CC[C@H](Oc2cc(-c3cnn(C)c3)cc3ncnc(Nc4ccc5ncsc5c4)c23)[C@@H](F)C1` (single isomer, unassigned) [Example 344] has an IC50 [1] of no more than 10 nM, an IC50 [2] of no more than 10 nM and an IC50 [3] of no more than 10 nM.
Work on `COc1nn(C)cc1-c1cc(O[C@H]2CNC[C@H]2F)c2c(Nc3ccc4ncsc4c3)ncnc2c1` (racemic) [Example 371, N-(5-(((3S,4R)-4-fluoropyrrolidin-3-yl)oxy)-7-(3-methoxy-1-methyl-1H-pyrazol-4-yl)quinazolin-4-yl)benzo[d]thiazol-6-amine and N-(5-(((3R,4S)-4-fluoropyrrolidin-3-yl)oxy)-7-(3-methoxy-1-methyl-1H-pyrazol-4-yl)quinazolin-4-yl)benzo[d]thiazol-6-amine] yielded an IC50 [1] of 10.1 to 50 nM, an IC50 [2] of no more than 10 nM and an IC50 [3] of 10.1 to 50 nM.
For `C[C@H]1[C@H](Oc2cc(-c3cnn(C)c3)cc3ncnc(Nc4ccc5ncsc5c4)c23)CN1C` (single isomer, unassigned) [Example 321], the IC50 [1] was 10.1 to 50 nM, the IC50 [2] was no more than 10 nM and the IC50 [3] was 10.1 to 50 nM.
Work on `CCN1CCC(Oc2cc(-c3cnn(C)c3)cc3ncnc(Nc4ccc5ncsc5c4)c23)C1=O` (racemic) [Example 58, (rac)-3-((4-(benzo[d]thiazol-6-ylamino)-7-(1-methyl-1H-pyrazol-4-yl)quinazolin-5-yl)oxy)-1-ethylpyrrolidin-2-one] yielded an IC50 [1] of no more than 10 nM, an IC50 [2] of no more than 10 nM and an IC50 [3] of no more than 10 nM.
`Cn1cc(-c2cc(O[C@@H]3CC[C@H]3O)c3c(Nc4ccc5ncsc5c4)ncnc3c2)cn1` [Example 186, (1R,2R)-2-((4-(benzo[d]thiazol-6-ylamino)-7-(1-methyl-1H-pyrazol-4-yl)quinazolin-5-yl)oxy)cyclobutan-1-ol] showed an IC50 [1] of no more than 10 nM, an IC50 [2] of no more than 10 nM and an IC50 [3] of no more than 10 nM.
Compound `CN1CCC(Oc2cc(-c3ccc(S(C)(=O)=O)cc3)cc3ncnc(Nc4ccc5ncsc5c4)c23)CC1` [Example 243, N-(5-((1-methylpiperidin-4-yl)oxy)-7-(4-(methylsulfonyl)phenyl)quinazolin-4-yl)benzo[d]thiazol-6-amine] has an IC50 [1] of 10.1 to 50 nM, an IC50 [2] of 10.1 to 50 nM and an IC50 [3] of 10.1 to 50 nM.
Work on `C[C@H]([C@@H](C)Oc1cc(-c2cnn(C)c2)cc2ncnc(Nc3ccc4ncsc4c3)c12)N(C)C` (single isomer, unassigned) [Example 143] yielded an IC50 [1] of no more than 10 nM, an IC50 [2] of no more than 10 nM and an IC50 [3] of no more than 10 nM.
`CN1C[C@H](F)[C@H](Oc2cc(-c3cnn(C)c3)cc3ncnc(Nc4ccc5ncsc5c4)c23)C1` (single isomer, unassigned) [Example 380] was tested, and the IC50 [1] was no more than 10 nM, the IC50 [2] was no more than 10 nM and the IC50 [3] was 10.1 to 50 nM.

Reference: patent US20260207602A1, “EGFR INHIBITORS” (Blueprint Medicines Corporation, priority 2022, published 2026)
